Data taken from patent US12624018B1, “Inhibitors of RIPK2 and medical uses thereof” (Odyssey Therapeutics, Inc., priority 2022, dated 2026).

target: T1, RIPK2 enzyme (Homo sapiens, UniProt O43353); assay: RIPK2 inhibition (ADP-Glo Kinase Assay); type: biochemical; settings: RIPK2 5 nM, ATP 150 μM, MBP substrate, read-out: RIPK2 IC50
T1 construct: purchased Carna 09-128
How it was run: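 Human RIPK2 (5 nM) preincubated with compound 30 min at room temperature in 50 mM HEPES pH 7.5, 10 mM MgCl2, 2 mM DTT, 1 mM EGTA, 0.01% Brij-35, 0.05% BSA; native swine MBP as substrate. ADP formed quantified by ADP-Glo luminescence; percent inhibition relative to DMSO and no-enzyme controls.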

T1 sequence (O43353 1-299 limits assumed): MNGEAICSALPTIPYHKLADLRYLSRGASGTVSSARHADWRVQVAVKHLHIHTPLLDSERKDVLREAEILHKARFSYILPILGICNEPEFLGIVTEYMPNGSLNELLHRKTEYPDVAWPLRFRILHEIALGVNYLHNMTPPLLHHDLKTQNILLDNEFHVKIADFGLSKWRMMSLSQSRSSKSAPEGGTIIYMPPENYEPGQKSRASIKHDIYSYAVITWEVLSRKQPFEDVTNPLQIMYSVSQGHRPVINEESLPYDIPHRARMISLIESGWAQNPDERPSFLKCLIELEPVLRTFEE

Row | IC50 | SMILES
1 | < 2.5 nM | Cc1cc(CC(=O)Nc2cnn(C(C)(C)C)c2)ccc1Oc1ccnc2ccc(N3CC(CO)OC3=O)cc12 (single isomer, unassigned) [Compound 317, N-(1-(tert-butyl)-1H-pyrazol-4-yl)-2-(4-((6-(5-(hydroxymethyl)-2-oxooxazolidin-3-yl)quinolin-4-yl)oxy)-3-methylphenyl) acetamide]
2 | < 2.5 nM | Cc1c(Oc2ccnc3ccc(S(=O)(=O)N4C[C@@H](C)N[C@@H](C)C4)cc23)ccc(CC(=O)Nc2cnn(C(C)(C)C)c2)c1F [Compound 387, N-(1-(tert-butyl)-1H-pyrazol-4-yl)-2-(4-((6-(((3R,5S)-3,5-dimethylpiperazin-1-yl)sulfonyl)quinolin-4-yl)oxy)-2-fluoro-3-methylphenyl)acetamide]
3 | < 2.5 nM | COC(C)(C)c1ccc2nccc(Oc3ccc(CC(=O)Nc4cnn(C(C)(C)C)c4)c(F)c3C)c2c1 [Compound 303, N-(1-(tert-butyl)-1H-pyrazol-4-yl)-2-(2-fluoro-4-((6-(2-methoxypropan-2-yl)quinolin-4-yl)oxy)-3-methylphenyl)acetamide]
4 | < 2.5 nM | CN1CCN(S(=O)(=O)c2ccc3nccc(Oc4ccc(CC(=O)Nc5cnn(C(C)(C)C)c5)c(F)c4)c3c2)CC1 [Compound 126, N-(1-(tert-butyl)-1H-pyrazol-4-yl)-2-(2-fluoro-4-((6-((4-methylpiperazin-1-yl)sulfonyl)quinolin-4-yl)oxy)phenyl)acetamide]
5 | < 2.5 nM | Cc1c(Oc2ccnc3ccc(C(=O)NC4CC(C#N)C4)cc23)ccc(CC(=O)Nc2cnn(C(C)(C)C)c2)c1F (single isomer, unassigned) [Compound 404, 4-(4-(2-((1-(tert-butyl)-1H-pyrazol-4-yl)amino)-2-oxoethyl)-3-fluoro-2-methyl-phenoxy)-N-(-3-cyano-cyclobutyl) quinoline-6-carboxamide]
6 | < 2.5 nM | CC(C)c1cc(NC(=O)Cc2ccc(Oc3ccnc4ccc(S(C)(=O)=O)cc34)cc2F)nn1C [Compound 144, 2-(2-fluoro-4-((6-(methylsulfonyl)quinolin-4-yl)oxy)phenyl)-N-(5-isopropyl-1-methyl-1H-pyrazol-3-yl)acetamide]
7 | < 2.5 nM | Cc1cc(CC(=O)Nc2cnn(C(C)(C)C)c2)c(F)cc1Oc1ccnc2ccc(C(=O)NC3(C)CC3)cc12 [Compound 458, 4-(4-(2-((1-(tert-butyl)-1H-pyrazol-4-yl)amino)-2-oxoethyl)-5-fluoro-2-methylphenoxy)-N-(1-methylcyclopropyl)quinoline-6-carboxamide]
8 | < 2.5 nM | Cc1cc(CC(=O)Nc2cnn(C(C)(C)C)c2)c(F)cc1Oc1ccnc2ccc(C(=O)NC(C)(C)C)cc12 [Compound 456, N-(tert-butyl)-4-(4-(2-((1-(tert-butyl)-1H-pyrazol-4-yl)amino)-2-oxoethyl)-5-fluoro-2-methylphenoxy)quinoline-6-carboxamide]
9 | 10.9 nM | CC(C)(C)n1cc(NC(=O)Cc2ccc(Oc3ncnc4ccc(OC5CCOCC5)cc34)cc2F)cn1 [Compound 133, N-(1-(tert-butyl)-1H-pyrazol-4-yl)-2-(2-fluoro-4-((6-((tetrahydro-2H-pyran-4-yl)oxy)quinazolin-4-yl)oxy)phenyl) acetamide]

The remaining lines, values behind:

Row | SMILES | IC50
10 | COc1ccc2ncnc(Oc3ccc(CC(=O)Nc4cc(C(C)(C)C)cnn4)c(F)c3)c2c1 [Compound 30, N-(5-(tert-butyl)pyridazin-3-yl)-2-(2-fluoro-4-((6-methoxy-quinazolin-4-yl)oxy)phenyl) acetamide] | 7.2 nM
11 | Cc1cc(CC(=O)Nc2cnn(C(C)(C)C)c2)c(F)cc1Oc1ccnc2ccc(C(=O)N3[C@H](C)CCC[C@@H]3C)cc12 [Compound 450, N-(1-(tert-butyl)-1H-pyrazol-4-yl)-2-(4-((6-((2S,6R)-2,6-dimethylpiperidine-1-carbonyl)quinolin-4-yl)oxy)-2-fluoro-5-methylphenyl)acetamide] | < 2.5 nM
12 | Cc1c(Oc2ccnc3ccc(S(=O)(=O)C4CNC4)cc23)ccc(CC(=O)Nc2cnn(C(C)(C)C)c2)c1F [Compound 315, 2-(4-((6-(azetidin-3-ylsulfonyl)quinolin-4-yl)oxy)-2-fluoro-3-methylphenyl)-N-(1-(tert-butyl)-1H-pyrazol-4-yl)acetamide] | < 2.5 nM
13 | Cc1c(Oc2ncnc3ccc(OC4CCN(C)CC4)cc23)ccc(CC(=O)Nc2cnn(C(C)(C)C)c2)c1F [Compound 107, N-(1-(tert-butyl)-1H-pyrazol-4-yl)-2-(2-fluoro-3-methyl-4-((6-((1-methyl-piperidin-4-yl)oxy)quinazolin-4-yl)oxy)phenyl) acetamide] | < 2.5 nM
14 | Cc1cc(CC(=O)Nc2cc(C(C)(C)C)n[nH]2)ccc1Oc1ccnc2ccc(S(C)(=O)=O)cc12 [Compound 87, N-(5-(tert-butyl)-1H-pyrazol-3-yl)-2-(3-methyl-4-((6-(methylsulfonyl)quinolin-4-yl)oxy)phenyl)acetamide] | < 2.5 nM
15 | CC(=O)N1CC(Oc2ccc3nccc(Oc4ccc(CC(=O)Nc5cnn(C(C)(C)C)c5)cc4C)c3c2)C1 [Compound 229, 2-(4-((6-((1-acetylazetidin-3-yl)oxy)quinolin-4-yl)oxy)-3-methyl-phenyl)-N-(1-(tert-butyl)-1H-pyrazol-4-yl)acetamide] | < 2.5 nM
16 | Cc1cc(CC(=O)Nc2cnn(C(C)(C)C)c2)c(F)cc1Oc1ccnc2ccc(C(=O)N3CCNCC3)cc12 [Compound 379, N-(1-(tert-butyl)-1H-pyrazol-4-yl)-2-(2-fluoro-5-methyl-4-((6-(piperazine-1-carbonyl)quinolin-4-yl)oxy)phenyl) acetamide] | < 2.5 nM
17 | Cn1nc(NC(=O)Cc2ccc(Oc3ccnc4ccc(S(C)(=O)=O)cc34)cc2F)cc1C1CC1 [Compound 146, N-(5-cyclopropyl-1-methyl-1H-pyrazol-3-yl)-2-(2-fluoro-4-((6-(methylsulfonyl)quinolin-4-yl)oxy)phenyl)acetamide] | < 2.5 nM
18 | Cc1cc(CC(=O)Nc2cnn(C(C)(C)C)c2)ccc1Oc1ccnc2ccc(S(=O)(=O)C(C)(C)CO)cc12 [Compound 310, N-(1-(tert-butyl)-1H-pyrazol-4-yl)-2-(4-((6-((1-hydroxy-2-methylpropan-2-yl)sulfonyl)quinolin-4-yl)oxy)-3-methylphenyl)acetamide] | < 2.5 nM
19 | Cc1cc(CC(=O)Nc2cnn(C(C)(C)C)c2)ccc1Oc1ccnc2ccc(O[C@H]3C[C@@H](N)C3)cc12 [Compound 123, 2-(4-((6-((1s,3s)-3-aminocyclo-butoxy)quinolin-4-yl)oxy)-3-methyl-phenyl)-N-(1-(tert-butyl)-1H-pyrazol-4-yl)acetamide] | < 2.5 nM
20 | COc1cc2nccc(Oc3ccc(CC(=O)Nc4cnn(C(C)(C)C)c4)c(F)c3)c2cc1S(C)(=O)=O [Compound 39, N-(1-(tert-butyl)-1H-pyrazol-4-yl)-2-(2-fluoro-4-((7-methoxy-6-(methylsulfonyl)quinolin-4-yl)oxy)phenyl)acetamide] | < 2.5 nM
21 | Cc1c(Oc2ccnc3ccc(C(=O)N[C@H]4C[C@@H](O)C4)cc23)ccc(CC(=O)Nc2cnn(C(C)(C)C)c2)c1F [Compound 402, 4-(4-(2-((1-(tert-butyl)-1H-pyrazol-4-yl)amino)-2-oxoethyl)-3-fluoro-2-methyl-phenoxy)-N-((1s,3s)-3-hydroxy-cyclobutyl) quinoline-6-carboxamide] | < 2.5 nM
22 | CNS(=O)(=O)c1ccc2nccc(Oc3ccc(CC(=O)Nc4cnn(C(C)(C)C)c4)cc3C)c2c1 [Compound 255, N-(1-(tert-butyl)-1H-pyrazol-4-yl)-2-(3-methyl-4-((6-(N-methylsulfamoyl)quinolin-4-yl)oxy)phenyl)acetamide] | < 2.5 nM
23 | Cc1cc(CC(=O)Nc2cnn(C(C)(C)C)c2)c(F)cc1Oc1ccnc2ccc(-c3ncnn3C)cc12 [Compound 428, N-(1-(tert-butyl)-1H-pyrazol-4-yl)-2-(2-fluoro-5-methyl-4-((6-(1-methyl-1H-1,2,4-triazol-5-yl)quinolin-4-yl)oxy)phenyl)acetamide] | < 2.5 nM
24 | Cc1cc(CC(=O)Nc2cc(C(C)(C)C)ncn2)ccc1Oc1ncnc2ccc(F)cc12 [Compound 54, N-(6-(tert-butyl)pyrimidin-4-yl)-2-(4-((6-fluoroquinazolin-4-yl)oxy)-3-methylphenyl) acetamide] | 54.1 nM
25 | Cc1c(Oc2ccnc3ccc(C(=O)NC4CC(C#N)C4)cc23)ccc(CC(=O)Nc2cnn(C(C)(C)C)c2)c1F (single isomer, unassigned) [Compound 403, 4-(4-(2-((1-(tert-butyl)-1H-pyrazol-4-yl)amino)-2-oxoethyl)-3-fluoro-2-methyl-phenoxy)-N-(-3-cyano-cyclobutyl) quinoline-6-carboxamide] | < 2.5 nM
26 | COc1ccc2ncnc(Oc3cnc(CC(=O)Nc4cc(C(C)(C)C)ccn4)c(F)c3)c2c1 [Compound 29, N-(4-(tert-butyl)pyridin-2-yl)-2-(3-fluoro-5-((6-methoxy-quinazolin-4-yl)oxy)pyridin-2-yl)acetamide] | 5.2 nM
27 | Cc1cc(CC(=O)Nc2cnn(C(C)(C)C)c2)ccc1Oc1ncnc2ccc(OC3CCN(CC(F)(F)F)CC3)cc12 [Compound 111, N-(1-(tert-butyl)-1H-pyrazol-4-yl)-2-(3-methyl-4-((6-((1-(2,2,2-trifluoroethyl)piperidin-4-yl)oxy)quinazolin-4-yl)oxy)phenyl) acetamide] | 36.4 nM
28 | Cc1cc(CC(=O)Nc2cnn(C(C)(C)C)c2)c(F)cc1Oc1ccnc2ccc(C(=O)NC3CC(C#N)C3)cc12 (single isomer, unassigned) [Compound 395, 4-(4-(2-((1-(tert-butyl)-1H-pyrazol-4-yl)amino)-2-oxoethyl)-5-fluoro-2-methyl-phenoxy)-N-(-3-cyano-cyclobutyl) quinoline-6-carboxamide] | < 2.5 nM
29 | Cc1cc(CC(=O)Nc2cnn(C(C)(C)C)c2)ccc1Oc1ccnc2ccc(S(=O)(=O)CC3CNC3)cc12 [Compound 332, 2-(4-((6-((azetidin-3-ylmethyl)sulfonyl)quinolin-4-yl)oxy)-3-methylphenyl)-N-(1-(tert-butyl)-1H-pyrazol-4-yl)acetamide] | < 2.5 nM
